Laboratory results from publication PMC5849714, “Direct coupling of detergent purified human mGlu5 receptor to the heterotrimeric G proteins Gq and Gs” (Scientific Reports, 2018).

Experiments:
human mGlu5 receptor [1] = target: T1, human mGlu5 receptor (Homo sapiens, UniProt P41594); assay: Bodipy-FL GTPγS activation of purified Gq/Gs by purified receptor ([…] ligand); pEC50 from IP-One assay in HEK293 cells; format: biochemical; set-up: gene GRM5; mGlu5-Δ856 (C-terminus truncated after Ala856)
Target sequence in this assay (P41594 21-856): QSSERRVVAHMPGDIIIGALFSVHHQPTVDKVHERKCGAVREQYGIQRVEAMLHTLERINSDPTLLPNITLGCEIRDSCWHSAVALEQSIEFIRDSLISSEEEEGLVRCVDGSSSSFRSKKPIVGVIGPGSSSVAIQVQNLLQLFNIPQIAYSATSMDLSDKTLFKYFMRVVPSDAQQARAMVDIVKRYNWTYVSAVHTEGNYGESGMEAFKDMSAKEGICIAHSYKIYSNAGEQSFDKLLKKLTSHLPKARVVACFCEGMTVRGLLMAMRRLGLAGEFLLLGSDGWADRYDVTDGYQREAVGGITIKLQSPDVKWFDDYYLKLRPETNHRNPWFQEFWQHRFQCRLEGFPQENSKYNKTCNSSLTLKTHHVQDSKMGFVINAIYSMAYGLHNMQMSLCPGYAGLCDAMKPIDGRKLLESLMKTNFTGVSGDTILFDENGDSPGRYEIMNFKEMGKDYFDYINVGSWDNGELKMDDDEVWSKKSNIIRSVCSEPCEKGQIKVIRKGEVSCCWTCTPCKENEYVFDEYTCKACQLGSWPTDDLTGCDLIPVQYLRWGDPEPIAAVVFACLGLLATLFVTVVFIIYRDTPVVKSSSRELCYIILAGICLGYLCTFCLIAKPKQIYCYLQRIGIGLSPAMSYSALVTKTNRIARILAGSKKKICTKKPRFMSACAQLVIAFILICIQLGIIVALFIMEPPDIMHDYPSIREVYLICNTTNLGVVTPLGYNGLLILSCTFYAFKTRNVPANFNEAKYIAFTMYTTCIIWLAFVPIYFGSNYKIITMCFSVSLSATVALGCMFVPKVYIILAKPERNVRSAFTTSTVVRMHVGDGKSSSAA

human mGlu5 receptor [2] = target: T1, human mGlu5 receptor; assay: IP-One accumulation in transfected HEK293 cells; format: cell-based; set-up: gene GRM5; full-length wild-type (SNAP-tagged)
Target sequence in this assay (P41594 21-1212): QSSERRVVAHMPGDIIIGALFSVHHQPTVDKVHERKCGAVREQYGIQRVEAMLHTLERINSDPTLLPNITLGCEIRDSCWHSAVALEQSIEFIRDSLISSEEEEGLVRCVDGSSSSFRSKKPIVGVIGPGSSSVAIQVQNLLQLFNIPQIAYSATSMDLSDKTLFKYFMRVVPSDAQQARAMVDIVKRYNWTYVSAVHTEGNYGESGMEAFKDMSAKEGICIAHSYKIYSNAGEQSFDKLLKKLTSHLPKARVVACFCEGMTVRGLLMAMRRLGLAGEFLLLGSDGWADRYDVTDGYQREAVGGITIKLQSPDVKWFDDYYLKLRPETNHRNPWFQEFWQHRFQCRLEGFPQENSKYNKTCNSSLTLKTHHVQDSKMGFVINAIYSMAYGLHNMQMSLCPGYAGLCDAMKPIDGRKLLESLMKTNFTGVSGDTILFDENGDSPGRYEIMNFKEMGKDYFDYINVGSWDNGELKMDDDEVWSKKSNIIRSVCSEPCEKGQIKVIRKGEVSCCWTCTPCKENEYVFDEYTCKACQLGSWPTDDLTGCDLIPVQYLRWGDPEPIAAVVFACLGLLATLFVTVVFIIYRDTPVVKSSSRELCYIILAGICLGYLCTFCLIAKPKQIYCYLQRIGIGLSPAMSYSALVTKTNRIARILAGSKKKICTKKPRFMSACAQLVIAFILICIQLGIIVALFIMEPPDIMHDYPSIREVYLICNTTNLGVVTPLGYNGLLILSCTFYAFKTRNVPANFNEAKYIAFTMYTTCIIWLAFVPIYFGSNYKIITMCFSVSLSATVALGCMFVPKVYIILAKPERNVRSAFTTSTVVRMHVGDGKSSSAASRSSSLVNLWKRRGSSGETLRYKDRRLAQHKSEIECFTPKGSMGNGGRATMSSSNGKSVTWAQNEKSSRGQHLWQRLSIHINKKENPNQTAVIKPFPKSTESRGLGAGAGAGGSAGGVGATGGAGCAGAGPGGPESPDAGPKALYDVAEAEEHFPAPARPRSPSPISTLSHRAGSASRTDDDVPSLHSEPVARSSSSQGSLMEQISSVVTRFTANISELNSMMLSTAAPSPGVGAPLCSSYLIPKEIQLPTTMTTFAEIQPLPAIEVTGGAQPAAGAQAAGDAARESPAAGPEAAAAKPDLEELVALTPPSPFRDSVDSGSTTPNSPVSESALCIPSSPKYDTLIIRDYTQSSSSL

Row | Structure (SMILES) | EC50 (human mGlu5 receptor [1]) [nM] | EC50 (human mGlu5 receptor [2]) [nM]
1 | C[C@@H](NC(=O)c1ccc(C#Cc2cccc(F)c2)cn1)C(C)(C)O [VU0424465, (R)-5-((3-fluorophenyl)ethynyl)-N-(3-hydroxy-3-methylbutan-2-yl) picolinamide] | 2.95 | –
2 | N[C@@H](Cn1oc(=O)[nH]c1=O)C(=O)O [quisqualate] | – | 30.9
